Data taken from US12404255B2, “Compound and pharmaceutical composition containing same for treating or preventing neural damage, neural disease, or developmental disorder through promoting proliferation, differentiation, and/or regeneration of neural cells” (ETNOVA THERAPEUTICS CORP., priority 2020, dated 2025).

Tests used:
[1] = Solubility test in deionized water; type: physicochemical
Protocol: In order to check the solubility of the compound according to the present disclosure, each of MMB-11903B according to the present disclosure prepared in the Preparation Example and ATRA was added to 1 mL of deionized water at a concentration of 100 mM (Compound MMB-11903B according to the present disclosure: 72.8 mg/mL; ATRA: 30.0 mg/mL) and each mixed solution was stirred for dissolution by lightly vortexing the same. After each of the prepared solution of the compound MMB-11903B according to the present disclosure and the prepared ATRA solution was left at room temperature for 20 minutes, an image thereof was taken again to observe a dissolution state of each compound in each solution (FIG. 1).
Thus, the compound MMB-11903B according to the present disclosure may be easily dissolved in the solvent such as water, so that it has high solubility, and further has solubility stability, so that it may maintain a dissolved state even after being left for a long time.

[2] = system: human neuroblastoma SH-SY5Y; assay: Cell viability test using CCK-8; type: cell-based; settings: CCK-8, 0-50 μM, 24, 48, 72 hours
Protocol: Cell viability analysis of a nerve cell line using CCK-8 was performed on human neuroblastoma SH-SY5Y as an undifferentiated nerve cell line. For reference, the analysis using the CCK-8 (Cell counting kit-8) was based on a highly water-soluble tetrazolium salt-SST-8. The analysis is based on the fact that when [2-(2-methoxy-4-nitrophenyl)-3-(4-nitrophenyl)(2,4-disulfophenyl)-2H-tetrazolium, monosodium salt] is reduced under presence of an electron mediator, a water-soluble formazan orange dye is produced, and an amount of the formazan dye produced by dehydrogenase in cells is directly proportional to the number of living cells. The specific experimental method is as follows.
The next day, the growth medium was removed therefrom. […] At 2 hours before a harvest time, 10 μL of CCK-8 solution was added to each well and the cells were incubated for an additional 2 hours. […] Cell viability (%)=B/A×100(%) [Cell viability calculation equation]
(In the equation, A denotes an absorbance value measured in a control well, and B denotes an absorbance value measured in the well containing the drug).

[3] = system: SH-SY5Y; settings: human, 24 h, 200 μM
Text: (§1) The calculated values were graphed using the GraphPad Prism application.

[4] = system: SH-SY5Y; assay: Neurite elongation and new neuron generation and growth using immunofluorescence staining (color histogram); type: cell-based, human; settings: 10 μM, day 3
Protocol: For cell viability analysis, stabilized cells were planted in a 60 mm dish at a density of ×10^5 cells/dish. […] The next day, the growth medium was removed therefrom. […] Then, the cells were incubated therein for 1, 3, and 5 days, and under at 37° C. and 5% C02 condition. The cells were harvested and were washed with DPBS, and fixed with 10% Neutral Buffered Formalin for 10 minutes, washed 3 times with Tris-buffered saline (TBS), and then a reaction thereof was carried out for 15 minutes in 0.3% Triton X-100 (in TBS). The cells were washed three times in TBS, and a solution of 5% Bovine serum albumin (BSA) and Normal Goat Serum (NGS) in TBS was added thereto and a reaction thereof was carried out at 4° C. for 24 hours. Differentiation into the nerve cells and formation of the neurite were identified using j-III tubulin primary antibody as a neuron specific marker and doublecortin primary antibody as a newborn immature neuron marker. […] The cells were washed three times with TBS, and were mounted (VECTASHIELD® Mounting Medium with DAPI; Vector Laboratories, Burlingame, CA, USA), and images were acquired with a fluorescence microscope. […]
The color histogram was measured using the ImageJ program.

[5] = system: SH-SY5Y; assay: Cell proliferation effect using immunofluorescence staining (Ki-67 positive cells); type: cell-based, human; settings: 1st day of exposure
Protocol: The number of cells which were positive relative to Ki-67 as a marker for neuronal proliferation was analyzed. The number of the positive cells was automatically obtained using the ImageJ program. Ki-67 positive cells (%)=(ki-67 positive cell number/DAPI positive cell number)×100 [Calculation equation of Ki-67 positive cell number]
The calculated values were graphed using the GraphPad Prism application. […] The statistical significance of the obtained values was identified via one-way ANOVA with Dunnett's multiple comparison test. *p<0.5, **p<0.1, ***p<0.01 vs. control, #p<0.5, ##p<0.1 vs. DO3A, †p<0.5, †††p<0.01 vs. ATRA indicate presence of statistical significance.

[6] = system: SH-SY5Y; assay: Changes in morphology of nerve cells (inverted microscope); type: cell-based, human; parameters: neurite elongation / change in cell morphology: dose or concentration left out as unconfirmed; settings: microscope image
Protocol: For cell viability analysis, stabilized cells were planted in a 60 mm dish at a density of ×10^5 cells/dish. […] The next day, the growth medium was removed therefrom. […] Then, the cells were incubated therein for 1, 3, and 5 days, and under at 37° C. and 5% CO2 condition. Cell morphology was imaged with a Nikon inverted microscope (Nikon, ECLIPSE Ts2, Nikon Corporation, Tokyo, Japan).

[7] = system: SH-SY5Y; assay: Neurite elongation promoting effect using immunofluorescence staining; type: cell-based, human; settings: 10 μM
Text: as §1

Structure (SMILES)	dissolution state immediately after dissolution ([1]; 100 mM in 1 mL deionized water, light vortexing, initial state)	dissolution state after being left ([1]; 100 mM in deionized water, left at room temperature for 20 minutes)	cell viability, dependence on concentration and time [2]	cytotoxicity [3]	expression level of new neurons (color histogram) [4]	cell proliferation (Ki-67 positive cells) versus control [5]	neurite elongation / change in cell morphology ([6]; 1, 3, and 5 days)	apoptosis due to cytotoxicity ([6]; 5-20 μM, 1-5 days)	neurite length versus control ([7]; ImageJ measurement after fluorescent staining)	neurite elongation in fluorescence image ([7]; 1, 3, and 5 days, tubulin and doublecortin staining)
CC1=C(/C=C/C(C)=C/C=C/C(C)=C/C(=O)O)C(C)(C)CCC1 [ATRA, all-trans retinoic acid]	uniformly dissolved in the solution initially	separated from the solvent and was precipitated over time	the higher the concentration of ATRA and the longer the time, the lower the cell viability	approximately 55%	low expression level of new neurons	did not exhibit a significant difference from that of the control				
O=C(O)CN1CCNCCN(CC(=O)O)CCN(CC(=O)O)CC1 [DO3A]						approximately two times larger than the control	neurite elongation was not observed	observed at 10 μM, 5 days and at 20 μM, and 3 days	did not achieve the neurite elongation as in the control	neurite elongation was not observed
